Data published in PubChem BioAssay AID1963852 (Molecular Pharmacology Branch, DTP, NCI, 2024).

Tested on: 282377-053-R-J1-PDC complex spheroid viability
Assay: Anticancer human tumor 282377-053-R-J1-PDC patient-derived colon adenocarcinoma cell line growth inhibition [POLQ]
Conditions: for IC50: curve of first compound; for viability, T/C: stronger effect = lower value
Method in brief: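 Growth inhibition in 3D: complex spheroids (tumor PDC, HUVEC, MSC) treated with POLQ inhibitor combinations; where Cmax unknown, highest tested concentration 10 microM, except SN-38 at 1 microM.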

[1] = second compound 0.0316 µM, first compound 0.0316 µM
[2] = second compound 0.0316 µM, first compound 0.1 µM
[3] = second compound 0.0316 µM, first compound 0.316 µM
[4] = second compound 0.0316 µM, first compound 1 µM
[5] = second compound 0.0316 µM, first compound 3.16 µM
[6] = second compound 0.0316 µM, first compound 10 µM
[7] = second compound 0.1 µM, first compound 0.0316 µM
[8] = second compound 0.1 µM, first compound 0.1 µM
[9] = second compound 0.1 µM, first compound 0.316 µM
[10] = second compound 0.1 µM, first compound 1 µM
[11] = second compound 0.1 µM, first compound 3.16 µM
[12] = second compound 0.1 µM, first compound 10 µM
[13] = second compound 0.316 µM, first compound 0.0316 µM
[14] = second compound 0.316 µM, first compound 0.1 µM
[15] = second compound 0.316 µM, first compound 0.316 µM
[16] = second compound 0.316 µM, first compound 1 µM
[17] = second compound 0.316 µM, first compound 3.16 µM
[18] = second compound 0.316 µM, first compound 10 µM
[19] = second compound 1 µM, first compound 0.0316 µM
[20] = second compound 1 µM, first compound 0.1 µM
[21] = second compound 1 µM, first compound 0.316 µM
[22] = second compound 1 µM, first compound 1 µM
[23] = second compound 1 µM, first compound 3.16 µM
[24] = second compound 1 µM, first compound 10 µM
[25] = second compound 3.16 µM, first compound 0.0316 µM
[26] = second compound 3.16 µM, first compound 0.1 µM
[27] = second compound 3.16 µM, first compound 0.316 µM
[28] = second compound 3.16 µM, first compound 1 µM
[29] = second compound 3.16 µM, first compound 3.16 µM
[30] = second compound 3.16 µM, first compound 10 µM
[31] = second compound 10 µM, first compound 0.0316 µM
[32] = second compound 10 µM, first compound 0.1 µM
[33] = second compound 10 µM, first compound 0.316 µM
[34] = second compound 10 µM, first compound 1 µM
[35] = second compound 10 µM, first compound 3.16 µM
[36] = second compound 10 µM, first compound 10 µM
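Note: spheroids exposed to compounds for seven days.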
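Throughout, for viability, T/C: 100% = DMSO vehicle control viability.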

With C#Cc1c(F)ccc2cc(O)cc(-c3ncc4c(N5CC6CCC(C5)N6)nc(OCC56CCCN5CC(F)C6)nc4c3F)c12 (centres undefined) + Nc1ccc(C#CCN(C(=O)Cc2ncc(C(F)(F)F)cc2C(F)(F)F)c2ccc(F)cc2)nn1 the IC50 (second compound 0.0316 µM) was greater than 10000 nM, the IC50 (second compound 0.1 µM) was greater than 10000 nM and the IC50 (second compound 0.316 µM) was greater than 10000 nM. For the same compound, the IC50 (second compound 1 µM) was greater than 10000 nM, the IC50 (second compound 3.16 µM) was greater than 10000 nM and the IC50 (second compound 10 µM) was greater than 10000 nM. For the same compound, the viability, T/C [1] was 101%, the viability, T/C [2] was 114% and the viability, T/C [3] was 91.2%. For the same compound, the viability, T/C [4] was 97.5%, the viability, T/C [5] was 99.8% and the viability, T/C [6] was 84.8%. The viability, T/C [7] was 99.8%, the viability, T/C [8] was 108% and the viability, T/C [9] was 83.5%. For the same compound, the viability, T/C [10] was 116%, the viability, T/C [11] was 99.5% and the viability, T/C [12] was 79.6%. The viability, T/C [13] was 97.1%, the viability, T/C [14] was 106% and the viability, T/C [15] was 94.9%. The viability, T/C [16] was 85.2%, the viability, T/C [17] was 118% and the viability, T/C [18] was 110%. It also gave a viability, T/C [19] of 93%, a viability, T/C [20] of 121% and a viability, T/C [21] of 105%. The viability, T/C [22] was 92.7%, the viability, T/C [23] was 94.7% and the viability, T/C [24] was 96.8%. It also gave a viability, T/C [25] of 121%, a viability, T/C [26] of 120% and a viability, T/C [27] of 94%. It also gave a viability, T/C [28] of 107%, a viability, T/C [29] of 90.2% and a viability, T/C [30] of 96.3%. It also gave a viability, T/C [31] of 117%, a viability, T/C [32] of 107% and a viability, T/C [33] of 109%. It also gave a viability, T/C [34] of 112%, a viability, T/C [35] of 90.8% and a viability, T/C [36] of 119%.

With CC1COCCN1c1cc(C2(O)CC3CCC(C2)O3)c2cnn(-c3ccn[nH]3)c2n1 (centres undefined) + Nc1ccc(C#CCN(C(=O)Cc2ncc(C(F)(F)F)cc2C(F)(F)F)c2ccc(F)cc2)nn1 the IC50 (second compound 0.0316 µM) was 1980 nM, the IC50 (second compound 0.1 µM) was 588 nM and the IC50 (second compound 0.316 µM) was 1290 nM. It also gave an IC50 (second compound 1 µM) of 730 nM, an IC50 (second compound 3.16 µM) of 1180 nM and an IC50 (second compound 10 µM) of 1080 nM. For the same compound, the viability, T/C [1] was 83.8%, the viability, T/C [2] was 75.4% and the viability, T/C [3] was 67.5%. It also gave a viability, T/C [4] of 53.3%, a viability, T/C [5] of 47.8% and a viability, T/C [6] of 40.5%. The viability, T/C [7] was 89.3%, the viability, T/C [8] was 89.3% and the viability, T/C [9] was 57.3%. For the same compound, the viability, T/C [10] was 48.7%, the viability, T/C [11] was 43.3% and the viability, T/C [12] was 36.4%. For the same compound, the viability, T/C [13] was 107%, the viability, T/C [14] was 84.6% and the viability, T/C [15] was 63.9%. For the same compound, the viability, T/C [16] was 50.6%, the viability, T/C [17] was 46.5% and the viability, T/C [18] was 36.3%. It also gave a viability, T/C [19] of 97.6%, a viability, T/C [20] of 83.9% and a viability, T/C [21] of 71%. For the same compound, the viability, T/C [22] was 38.3%, the viability, T/C [23] was 44.4% and the viability, T/C [24] was 43.6%. The viability, T/C [25] was 92.3%, the viability, T/C [26] was 75.7% and the viability, T/C [27] was 65.6%. It also gave a viability, T/C [28] of 47.6%, a viability, T/C [29] of 45.9% and a viability, T/C [30] of 40.8%. It also gave a viability, T/C [31] of 97.3%, a viability, T/C [32] of 77.2% and a viability, T/C [33] of 62.8%. It also gave a viability, T/C [34] of 49.3%, a viability, T/C [35] of 44% and a viability, T/C [36] of 40.1%.
